pEC50, pIC50: −log10 of the molar value. Blank lines part the entries; values can stand above or below the molecule they belong to. Active and inactive are the calls of the source. No cut-off for these calls is given here.
Columns and labels:
r(CUG) repeat expansion [1] = experiment: Induction of 5'-biotinylated r(CUG)12 RNA repeat (unknown origin) degradation assessed as disruption of r(CUG)12-MBNL1 complex formation incubated for 15 mins by TR-FRET assay; format: nucleic-acid assay
r(CUG) repeat expansion [2] = experiment: Induction of r(CUG)exp RNA repeat in human DM1-patient derived myotubes assessed as reduction in number of foci containing r(CUG)exp-MBNL1 foci at 5 uM by RNA fluorescence in situ hybridization assay; format: nucleic-acid assay
r(CUG) repeat expansion [3] = experiment: Binding affinity to r(CUG)12 RNA repeat (unknown origin) by fluorescence based assay; format: nucleic-acid assay
[4] = Drug localization in cytoplasm of human DM1-patient derived myotubes by live-cell fluorescence microscopy; format: ADME, subcellular
r(CUG) repeat expansion [5] = experiment: Induction of r(CUG)exp RNA repeat in human DM1-patient derived myotubes assessed as improvement in MBNL1 exon 5 splicing defect at 5 uM by RT-qPCR analysis relative to control; format: nucleic-acid assay
[6] = Drug localization in nucleus of human DM1-patient derived myotubes by live-cell fluorescence microscopy; format: ADME, subcellular
[7] = Drug uptake in human DM1-patient derived myotubes by fluorescence based assay; format: ADME; conditions: in vitro
r(CUG) repeat expansion [8] = experiment: Induction of r(CUG)exp RNA repeat in human DM1-patient derived myotubes assessed as improvement in MBNL1 exon 5 splicing defect by RT-qPCR analysis; format: nucleic-acid assay
r(CUG) repeat expansion [9] = experiment: Induction of r(CUG)exp RNA repeat in human DM1-patient derived myotubes assessed as reduction in number of foci containing r(CUG)exp-MBNL1 foci at 5 uM by immunofluorescence assay; format: nucleic-acid assay
r(CUG) repeat expansion [10] = experiment: Binding affinity to r(CUG)8 RNA repeat (unknown origin) by fluorescence based assay; format: nucleic-acid assay
r(CUG) repeat expansion [11] = experiment: Induction of r(CUG)10 RNA repeat (unknown origin) degradation at 2.5 uM relative to control; format: nucleic-acid assay
r(CUG) repeat expansion [12] = experiment: Induction of DMPK mRNA 3'-UTR r(CUG)1300 repeat degradation in human DM1 patient-derived myotubes at 0.2 to 5 uM by RT-qPCR analysis relative to control; format: nucleic-acid assay
r(CUG) repeat expansion [13] = experiment: Induction of r(CUG)exp RNA repeat in human DM1-patient derived myotubes assessed as improvement in MBNL1 exon 5 splicing defect at 0.2 to 5 uM by RT-qPCR analysis relative to control; format: nucleic-acid assay
r(CUG) repeat expansion [14] = experiment: Induction of DMPK mRNA 3'-UTR r(CUG)1300 repeat degradation in human DM1 patient-derived myotubes at 5 uM by RT-qPCR analysis relative to control; format: nucleic-acid assay
r(CUG) repeat expansion [15] = experiment: Induction of SCUBE2 r(CUG)7 RNA repeat degradation in human DM1 patient myotubes at 1 uM by RT-qPCR analysis relative to control; format: nucleic-acid assay
r(CUG) repeat expansion [16] = experiment: Induction of DMPK mRNA 3'-UTR r(CUG)1300 repeat degradation in human DM1 patient-derived myotubes at 1 uM by RT-qPCR analysis relative to control; format: nucleic-acid assay
r(CUG) repeat expansion [17] = experiment: Induction of CASK r(CUG)16 RNA repeat degradation in human DM1 patient myotubes at 1 uM by RT-qPCR analysis relative to control; format: nucleic-acid assay
Homo sapiens [18] = species: Homo sapiens; experiment: Effect on alternative splicing of MAP4K4 exon 22a in human DM1-patient derived myotubes at 5 uM by RT-qPCR analysis relative to control; format: functional
Homo sapiens [19] = species: Homo sapiens; experiment: (§1) Induction of DNA damage in human DM1-patient derived myotubes at 1 uM assessed as induction of DNA double strand breaks by measuring gamma-H2AX foci formation by immunofluorescence assay relative to control; format: functional
r(CUG) repeat expansion [20] = experiment: Induction of r(CUG)exp RNA repeat in human DM1-patient derived myotubes assessed as improvement in MBNL1 exon 5 splicing defect at 1 uM by RT-qPCR analysis relative to control; format: nucleic-acid assay
r(CUG) repeat expansion [21] = experiment: Induction of LRP8 r(CUG)11 RNA repeat degradation in human DM1 patient myotubes at 1 uM by RT-qPCR analysis relative to control; format: nucleic-acid assay
r(CUG) repeat expansion [22] = experiment: Induction of wild-type DMPK r(CUG)20 RNA repeat degradation in human DM1 patient myotubes at 1 uM by RT-qPCR analysis relative to control; format: nucleic-acid assay
r(CUG) repeat expansion [23] = experiment: Induction of MAP3K4 r(CUG)11 RNA repeat degradation in human DM1 patient myotubes at 1 uM by RT-qPCR analysis relative to control; format: nucleic-acid assay
r(CUG) repeat expansion [24] = experiment: Induction of r(CUG)10 RNA repeat (unknown origin) degradation at 0.3 to 2.5 uM; format: nucleic-acid assay
r(CUG) repeat expansion [25] = experiment: Induction of SORCS2 r(CUG)7 RNA repeat degradation in human DM1 patient myotubes at 1 uM by RT-qPCR analysis relative to control; format: nucleic-acid assay
Homo sapiens [26] = species: Homo sapiens; experiment: Effect on MBNL1 exon 5 splicing patterns in wild type human myotubes at 5 uM by RT-qPCR analysis relative to control; format: functional
r(CUG) repeat expansion [27] = experiment: Induction of wild-type DMPK r(CUG)20 RNA repeat degradation in healthy human myotubes at 5 uM by RT-qPCR analysis relative to control; format: nucleic-acid assay
r(CUG) repeat expansion [28] = experiment: Induction of r(CUG)exp RNA repeat in human DM1-patient derived myotubes assessed as reduction in number of foci containing r(CUG)exp-MBNL1 foci at 1 uM by RNA fluorescence in situ hybridization assay; format: nucleic-acid assay
[29] = as §1; format: functional

SMILES: CN1CCN(c2ccc3[nH]c(-c4ccc5[nH]c(-c6cccc(OCCCC(=O)N(C)CCCCN(CC(N)=O)C(=O)[C@@H]7CCCN7C(=O)[C@@H]7CCCN7C(=O)CCCOc7cccc(-c8nc9ccc(-c%10nc%11ccc(N%12CCN(C)CC%12)cc%11[nH]%10)cc9[nH]8)c7)c6)nc5c4)nc3c2)CC1
Activity (r(CUG) repeat expansion [2]): Active | pEC50 (r(CUG) repeat expansion [3]): 6.82 | Drug uptake [4]: Active | pIC50 (r(CUG) repeat expansion [1]): 5.28 | Activity (r(CUG) repeat expansion [5]): 30% | Drug uptake [6]: Active | Drug uptake [7]: Active | Activity (r(CUG) repeat expansion [8]): Dose-dependent effect | Activity (r(CUG) repeat expansion [9]): Active | pEC50 (r(CUG) repeat expansion [10]): < 5.00

SMILES: CC(=O)N(C)CCCCN(CC(=O)NCCCCNCCCNC(=O)c1csc(-c2csc(CCNC(=O)[C@@H](NC(=O)[C@H](C)[C@@H](O)[C@H](C)NC(=O)[C@H](NC(=O)c3nc([C@@H](CC(N)=O)NC[C@@H](N)C(N)=O)nc(N)c3C)[C@H](O[C@@H]3O[C@@H](CO)[C@@H](O)[C@@H](O)[C@@H]3O[C@H]3O[C@H](CO)[C@@H](O)[C@H](OC(N)=O)[C@H]3O)c3cnc[nH]3)[C@H](C)O)n2)n1)C(=O)[C@H]1CCCN1C(=O)[C@H]1CCCN1C(C)=O
Activity (r(CUG) repeat expansion [11]): inactive | Activity (r(CUG) repeat expansion [12]): inactive | Activity (r(CUG) repeat expansion [13]): inactive

SMILES: Cc1c(N)nc([C@H](CC(N)=O)NC[C@H](N)C(N)=O)nc1C(=O)N[C@H](C(=O)N[C@H](C)[C@@H](O)[C@H](C)C(=O)N[C@H](C(=O)NCCc1nc(-c2nc(C(=O)NCCCNCCCCN)cs2)cs1)[C@@H](C)O)[C@@H](O[C@@H]1O[C@@H](CO)[C@@H](O)[C@H](O)[C@@H]1O[C@@H]1O[C@H](CO)[C@@H](O)[C@H](OC(N)=O)[C@@H]1O)c1cnc[nH]1
fold change (FC) [29]: 6

Continued, in another order:

Activity (r(CUG) repeat expansion [1]): Active
SMILES: CN1CCN(c2ccc3[nH]c(-c4ccc5[nH]c(-c6cccc(OCCCC(=O)N(C)CCCCN(CC(N)=O)C(=O)[C@@H]7CCCN7C(=O)[C@@H]7CCCN7C(=O)[C@@H]7CCCN7C(=O)CCCOc7cccc(-c8nc9cc(-c%10nc%11cc(N%12CCN(C)CC%12)ccc%11[nH]%10)ccc9[nH]8)c7)c6)nc5c4)nc3c2)CC1

Activity (r(CUG) repeat expansion [14]): 45% | pEC50 (r(CUG) repeat expansion [3]): 6.55 | Activity (r(CUG) repeat expansion [15]): inactive | Activity (r(CUG) repeat expansion [16]): Active | Activity (r(CUG) repeat expansion [17]): inactive | Activity (r(CUG) repeat expansion [5]): 50% | Drug uptake [7]: Active | Activity (r(CUG) repeat expansion [20]): 30% | Activity (r(CUG) repeat expansion [21]): inactive | Activity (r(CUG) repeat expansion [22]): inactive | Activity (r(CUG) repeat expansion [23]): inactive | Activity (r(CUG) repeat expansion [24]): Dose-dependent effect | Activity (r(CUG) repeat expansion [25]): inactive | Activity (r(CUG) repeat expansion [11]): 20% | pEC50 (r(CUG) repeat expansion [10]): < 5.00 | Activity (r(CUG) repeat expansion [27]): inactive | Activity (r(CUG) repeat expansion [28]): Active
SMILES: Cc1c(N)nc([C@@H](CC(N)=O)NC[C@@H](N)C(N)=O)nc1C(=O)N[C@@H](C(=O)N[C@@H](C)[C@H](O)[C@@H](C)C(=O)N[C@H](C(=O)NCCc1nc(-c2nc(C(=O)NCCCNCCCCNC(=O)CN(CCCCN(C)C(=O)CCCOc3cccc(-c4nc5cc(-c6nc7cc(N8CCN(C)CC8)ccc7[nH]6)ccc5[nH]4)c3)C(=O)[C@H]3CCCN3C(=O)[C@H]3CCCN3C(=O)CCCOc3cccc(-c4nc5ccc(-c6nc7ccc(N8CCN(C)CC8)cc7[nH]6)cc5[nH]4)c3)cs2)cs1)[C@H](C)O)[C@H](O[C@@H]1O[C@@H](CO)[C@@H](O)[C@@H](O)[C@@H]1O[C@H]1O[C@H](CO)[C@@H](O)[C@H](OC(N)=O)[C@H]1O)c1cnc[nH]1
Activity (Homo sapiens [18]): inactive | Activity (Homo sapiens [19]): inactive | Activity (Homo sapiens [26]): inactive

Activity (r(CUG) repeat expansion [1]): Active
SMILES: CN1CCN(c2ccc3[nH]c(-c4ccc5[nH]c(-c6cccc(OCCCC(=O)N(C)CCCCN(CC(N)=O)C(=O)[C@H](Cc7ccc(O)cc7)N(C)C(=O)[C@H](Cc7ccc(O)cc7)N(C)C(=O)[C@H](Cc7ccc(O)cc7)N(C)C(=O)[C@H](Cc7ccc(O)cc7)N(C)C(=O)CCCOc7cccc(-c8nc9ccc(-c%10nc%11ccc(N%12CCN(C)CC%12)cc%11[nH]%10)cc9[nH]8)c7)c6)nc5c4)nc3c2)CC1

Source: ChEMBL document CHEMBL4616726, “Optimization of the Linker Domain in a Dimeric Compound that Degrades an r(CUG) Repeat Expansion in Cells” (J Med Chem, 2020)
